We go through 27 compounds from US10730848B2 (priority 2013, dated 2020).

The structures appear in SMILES notation. Like-named read-outs stand apart in the source and are kept apart here.

The test deals with anthrax lethal toxin (LT). Put plainly: cells. Type of test: cell-based, murine.
Where [1] appears, read: Mus musculus, RAW264.7, read-out: IC50 (In uM).
Where [2] appears, read: Mus musculus, RAW264.7, read-out: IC50, inhibition of LT-induced cell death.

The term IC50 denotes the concentration at which inhibition is half-maximal. On to `Cc1cccc(C)c1NC(=O)N/N=C/c1ccc(Br)c(Cl)c1` [Compound 13ab, N^1-(4-BROMO-3-CHLOROBENZYLIDENE)-N^4-(2,6-DIMETHYLPHENYL)SEMICARBAZONE], for which the half-maximal inhibitory concentration (IC50) (Mus musculus, RAW264.7) was 3.4 µM.
For `Cc1cccc(C)c1NC(=O)NN` [Compound 6, N-(2,6-DIMETHYLPHENYL) SEMICARBAZIDE], the “protection of cells from LT (in words)” value was “did not prevent toxin-induced cell death”.
Turning to `Cc1cccc(C)c1NC(=O)N/N=C/c1ccco1` [Compound 13u, N^1-(FURAN-2-YLMETHYLENE)-N^4-(2,6-DIMETHYLPHENYL)SEMICARBAZONE], the half-inhibitory concentration (IC50) (Mus musculus, RAW264.7) is above 25 µM.
On to `C/C(=N\NC(=O)Nc1c(C)cccc1C)c1ccc(Br)cc1` [Compound 15, N^1-(4-BROMOPHENYLETHYLIDENE)-N^4-(2,6-DIMETHYLPHENYL)SEMICARBAZONE], for which the half-maximal inhibitory concentration (IC50) reads like this: (Mus musculus, RAW264.7) 2.5 µM; under setting [1], 2.5 µM; under setting [2], 2.5 µM.
As for `CCc1ccc(/C=N/NC(=O)Nc2c(C)cccc2C)cc1` [Compound 13l, N^1-(4-ETHYLBENZYLIDENE)-N^4-(2,6-DIMETHYLPHENYL)SEMICARBAZONE], the half-inhibitory concentration (IC50) worked out at 3 µM (Mus musculus, RAW264.7) and 3.02 µM under setting [1].
Take `Cc1cccc(C)c1NC(=O)N/N=C/c1ccc(F)cc1F` [Compound 13f, N^1-(2,4-DIFLUOROBENZYLIDENE)-N^4-(2,6-DIMETHYLPHENYL)SEMICARBAZONE]: the IC50 runs as follows: (Mus musculus, RAW264.7) 2.1 µM; under setting [1], 2.14 µM; under setting [2], 2.1 µM.
Regarding `CCc1cccc(CC)c1NC(=O)N/N=C/c1ccc(Br)cc1` [Compound 9c, N^1-(4-BROMOBENZYLIDENE)-N^4-(2,6-DIETHYLPHENYL)SEMICARBAZONE], the IC50 is above 12.5 µM. In addition, under “Mus musculus, RAW264.7”, the half-maximal inhibitory concentration (IC50) amounted to 16.7 µM. For the same compound, the 50% inhibitory concentration (IC50) under setting [1] was above 12.5 µM. Moreover, under setting [2], the 50% inhibitory concentration (IC50) was above 12.5 µM.
In the case of `Cc1cccc(C)c1NC(=O)N/N=C/c1ccc(NS(C)(=O)=O)cc1` [Compound 13p, N^1-(4-(N-(4-FORMYLPHENYL)METHANESULFONAMIDE)BENZYLIDENE-N^4-(2,6-DIMETHYLPHENYL)SEMICARBAZONE], the IC50 is above 25 µM (Mus musculus, RAW264.7) and above 25 µM under setting [1].
Regarding `Cc1cccc(C)c1NC(=O)N/N=C/c1ccc(Br)cc1F` [Compound 2, N^1-(4-BROMO-2-FLUOROBENZYLIDENE)-N^4-(2,6-DIMETHYLPHENYL)SEMICARBAZONE], the “protection of cells from LT (in words)” value is listed as “mid-nanomolar levels”. Under “Mus musculus, RAW264.7”, this compound yielded an IC50 of 0.4 µM. Moreover, the IC50 under setting [1] is 0.4 µM. Also, the half-inhibitory concentration (IC50) under setting [2] worked out at 0.4 µM.
Consider `Cc1cccc(C)c1NC(=O)N/N=C/c1ccc(I)cc1` [Compound 13q, N^1-(4-IODOBENZYLIDENE)-N^4-(2,6-DIMETHYLPHENYL)SEMICARBAZONE], for which the IC50 turned out to be 1.8 ± 0.3 µM. This compound yielded a concentration for half-maximal inhibition (IC50) (Mus musculus, RAW264.7) of 1.77 µM. Also, the 50% inhibitory concentration (IC50) under setting [1] was 1.77 µM.
Regarding `COc1cc(OC)c(/C=N/NC(=O)Nc2c(C)cccc2C)c(OC)c1` [Compound 13h, N^1-(2,4,6-TRIMETHOXYBENZYLIDENE)-N^4-(2,6-DIMETHYLPHENYL)SEMICARBAZONE], the half-maximal inhibitory concentration (IC50) is above 25 µM (Mus musculus, RAW264.7) and above 25 µM under setting [1].
As to `Cc1cccc(C)c1NC(=O)N/N=C/c1ccc(Br)s1` [Compound 13x, N^1-(5-BROMOTHIOPHENE-2-YLMETHYLENE)-N^4-(2,6-DIMETHYLPHENYL)SEMICARBAZONE], the concentration for half-maximal inhibition (IC50) runs as follows: (Mus musculus, RAW264.7) 1.67 µM; under setting [2], 1.7 µM.
Consider `Cc1cccc(C)c1NC(=S)N/N=C/c1ccc(Br)cc1` [Compound 19a, N^1-(4-BROMOBENZYLIDENE)-N^4-(2,6-DIMETHYLPHENYL)THIOSEMICARBAZONE], for which the IC50 worked out at 1.52 µM (Mus musculus, RAW264.7); 1.52 µM under setting [1]; 1.5 µM under setting [2].
`Cc1cccc(C)c1NC(=O)N/N=C/c1ccc(C(F)(F)F)cc1` [Compound 13r, N^1-(4-TRIFLUOROMETHYLBENZYLIDENE)-N^4-(2,6-DIMETHYLPHENYL)SEMICARBAZONE]: the half-inhibitory concentration (IC50) (Mus musculus, RAW264.7) was 2.6 ± 0.5 µM and the IC50 under setting [1] worked out at 2.59 µM.
On to `Cc1cccc(C)c1NC(=O)N/N=C/c1ccc(Cl)cc1` [Compound 13a, N^1-(4-CHLOROBENZYLIDENE)-N^4-(2,6-DIMETHYLPHENYL)SEMICARBAZONE], for which half-maximal inhibition (IC50) was put at 1.7 ± 0.2 µM. For the setting “Mus musculus, RAW264.7”, this compound showed an IC50 of 1.65 µM. Besides, the 50% inhibitory concentration (IC50) under setting [1] came out at 1.65 µM.
For the compound `Cc1cccc(C)c1NC(=O)NN=Cc1ccccc1` [Compound 12, benzaldehyde N-(2,6-dimethylphenyl)semicarbazone, reference compound], the “protection of cells from LT (in words)” value was “showed almost no activity against LT”. Further, the half-inhibitory concentration (IC50) (Mus musculus, RAW264.7) was above 25 µM.
On to `Cc1cccc(/C=N/NC(=O)Nc2c(C)cccc2C)c1` [Compound 13j, N^1-(3-METHYLBENZYLIDENE)-N^4-(2,6-DIMETHYLPHENYL)SEMICARBAZONE], for which the IC50 runs as follows: (Mus musculus, RAW264.7) 13.4 µM; under setting [1], 13.4 µM.
Regarding `Cc1cccc(C)c1NC(=O)N(C)/N=C/c1ccc(Br)cc1` [Compound 16, N^1-2-(4-BROMOBENZYLIDENE)-N^4-(2,6-DIMETHYLPHENYL)1-METHYLHYDRAZINECARBOXAMIDE], the 50% inhibitory concentration (IC50) reads like this: (Mus musculus, RAW264.7) 1.96 µM; under setting [1], 1.96 µM; under setting [2], 2 µM.
As for `CC(C)(C)NC(=O)N/N=C/c1ccc(Br)cc1` [Compound 10, N^1-(4-BROMOBENZYLIDENE)-N^4-(TERT-BUTYL)SEMICARBAZONE], the “protection of cells from LT (in words)” value was “not protective”. This compound also showed an IC50 (Mus musculus, RAW264.7) above 25 µM.
The corresponding values for `O=C(N/N=C/c1ccc(Cl)cc1)Nc1ccccc1` [Compound 11, N^1-(4-Cl-benzylidene)-N^4-phenylsemicarbazone, reference compound] are “not protective” and above 25 µM.
With `Cc1ccc(/C=N/NC(=O)Nc2c(C)cccc2C)cc1F` [Compound 13d, N^1-(3-FLUORO-4-METHYLBENZYLIDENE)-N^4-(2,6-DIMETHYLPHENYL)SEMICARBAZONE], the IC50 came to 1.8 µM (Mus musculus, RAW264.7) and 1.81 µM under setting [1].
For the compound `Cc1cccc(C)c1NC(=O)N/N=C/c1ccccc1F` [Compound 13c, N^1-(2-FLUOROBENZYLIDENE)-N^4-(2,6-DIMETHYLPHENYL)SEMICARBAZONE], the IC50 (Mus musculus, RAW264.7) came to 8.2 µM and the IC50 under setting [1] is 8.23 µM.
The matching figures for `COc1cccc(/C=N/NC(=O)Nc2c(C)cccc2C)c1OC` [Compound 13g, N^1-(2,3-DIMETHOXYBENZYLIDENE)-N^4-(2,6-DIMETHYLPHENYL)SEMICARBAZONE]: above 25 µM and above 25 µM.
Consider `Cc1cccc(C)c1NC(=O)N/N=C/c1ccc(Br)c(F)c1` [Compound 13aa, N^1-(4-BROMO-3-FLUOROBENZYLIDENE)-N^4-(2,6-DIMETHYLPHENYL)SEMICARBAZONE], for which the IC50 (Mus musculus, RAW264.7) worked out at 1.5 µM.
Take `Cc1ccccc1/C=N/NC(=O)Nc1c(C)cccc1C` [Compound 13i, N^1-(2-METHYLBENZYLIDENE)-N^4-(2,6-DIMETHYLPHENYL)SEMICARBAZONE]: the IC50 is above 25 µM (Mus musculus, RAW264.7) and above 25 µM under setting [1].
For the compound `C#CCN(/N=C/c1ccc(N=[N+]=[N-])cc1)C(=O)Nc1c(C)cccc1C` [Compound 28, 2-(4-Azidobenzylidene)-N-(2,6-dimethylphenyl)-1-(prop-2-yn-1-yl)hydrazinecarboxamide], the “protection of cells from LT (in words)” value was “did not offer any protection”. In addition, under “Mus musculus, RAW264.7”, the half-inhibitory concentration (IC50) was above 25 µM.
The compound `Cc1cccc(C)c1NC(=O)N/N=C/c1ccc(C#N)cc1` [Compound 13s, N^1-(4-CYANOMETHYLBENZYLIDENE)-N^4-(2,6-DIMETHYLPHENYL)SEMICARBAZONE] had an IC50 of 2.5 ± 0.3 µM. Where the note is “Mus musculus, RAW264.7”, this compound showed an IC50 of 2.45 µM. For the same compound, the half-inhibitory concentration (IC50) under setting [1] was 2.45 µM.
